Patent publication US7579353B2, “Pyridinone derivatives against malaria” (Glaxo Group Limited, priority 2005, dated 2009)
≈ marks a conversion by molar mass, not a printed value. Read-outs that look alike come from different tables or passages of the source.

Columns and labels:
Plasmodium falciparum = experiment: In vitro anti-malarial activity against Plasmodium falciparum, IC50 assay / [3H]-hypoxanthine incorporation assay; assay type: cell-based; details: Erythrocyte, parasitized red blood cells, 48 hours
Method: In Vitro Anti-malarial Activity Against Plasmodium falciparum
IC50 Assay/[^3H]-Hypoxanthine Assay
Plasmodium falciparum strains.
The culture medium comprised RPMI 1640 with 25 mM HEPES, sodium bicarbonate and glutamine (GIBCO™ cat. ref.: 52400), supplemented with 10% of pooled human sera AB (Irvine Scientific, cat. ref.: 5009) and HT supplement (0.15 mM hypoxanthine and 24 μM thymidine), (GIBCO™ cat. ref.: 41065). Human sera were decomplemented 30 min. at 56° C., aliquoted and stored frozen at −20° C. until use in this culture medium.
Red blood cells O+ stock suspensions were prepared from whole blood bags coming from incomplete blood donation, provided by the Spanish Red Cross (<25 days after sampling). This “whole blood” was aliquoted and stored at 4° C.
To prepare red blood cells for the assay, the whole blood was centrifuged and washed 3 times with RPMI without serum. The upper phase, containing white blood cells was removed. The washed red blood cells were kept as a 50% suspension in complete medium. The prepared cells were stored at 4° C. and were employed in the assay at any time up to 4 days after preparation.
Test compounds were dissolved at 2 mg/ml in 100% DMSO on the day of the assay. If necessary, complete dissolution was achieved by gentle heating (the mixture was heated at a temperature <37° C.) and sonication (sonication bath).
For IC50 determinations, 10 serial 2-fold dilutions were prepared in complete medium in the presence of a constant amount of DMSO.
Plasmodium falciparum strains were maintained in complete medium at an hematocrit of 5% in continuous culture using a method adapted from Trager and Jensen (1, 2).
The parasitemia was calculated by counting the percentage of parasitized erythrocytes by optical microscopy. Thin films of blood were made every day from each culture flask, fixed with methanol and stained for 10 min. in Giemsa (Merck, cat ref.: 1.09204) at 10% in buffered water pH 7.2. The glass slides were observed and counted with an optical microscope (Nikon, Eclipse E200) equipped with a 100× immersion oil objective.
The culture was maintained at an hematocrit of 5%, with a daily change of medium and was diluted when parasitemia had reached about 5%.
[^3H] Hypoxanthine incorporation assay was conducted using a method adapted from Desjardins et al. (3). The assays were performed in 96 wells flat bottom microplates.
1. Serial dilutions of the test compounds (50 μl of a 5× solution/well) were deposited in duplicate. Compounds of the invention were tested in this assay. Chloroquine and Atovaquone were used as control compounds for each assay.
3. [^3H]-Hypoxanthine (Amersham Biosciences, cat. ref.: TRK74) was added extemporaneously to the inoculum suspension at a concentration of 1 μCi/ml (equating to […]). 200 μl of the resulting suspension was distributed into each well (other than the control well H12 described below) leading to a final volume of 250 μl per well, at 2% of hematocrit and 0.5% of parasitemia/well.
4. In each plate, 2 columns were reserved for control wells: • Column 11: Positive control wells: PRBCs with 0.2% DMSO—(i) to determine DMSO solvent effect on parasite growth (at a final concentration of 0.2%) and (ii) to compare with cultures treated with test compounds. • Column 12 (comprising wells A12-H12): • A12-D12—Background value wells: Uninfected RBCs—blank control to obtain the background reading from RBCs without parasites. • E12-G12—Solvent effect wells: PRBCs without DMSO—to determine DMSO solvent effect on PRBCs by comparing these wells with column 11 wells. • H12-Non-radioactive well: PRBCs with cold hypoxanthine—(i) to carry out a thin blood film to determine parasitemia value after incubation by microscopy and (ii) to ensure that the parasites have grown properly during the assay. (200 μl of inoculum suspension was prepared as described above (Items 2 and 3) but with non-tritiated hypoxanthine instead of [3H]-hypoxanthine, then added to this well to a final volume of 250 μl). […]

[1] = Compound solubility determination (gross and equilibrium solubility; FaSSIF, FeSSIF, pH 7.4 PBS, pH 1.0 0.1N HCl, pH 4.5 sodium citrate); assay type: physicochemical; details: thermodynamic from solid
Method: Compound Solubility Determination
An amount of 3 mg solid compound with LC-MS purity ≧95% was required. This amount was split between 3 different glass vials (1.8 ml volume each), placing 1 mg compound into each one.
Organic solvents of HPLC grade were used. Ultra pure water (Milli-Q grade) was used. Buffers were prepared with ultra pure water and filtered using 0.45μ cameo filters. The compositions of each solvent employed in this assay are described below (part III).
2. Determination of Equilibrium Solubility (Assuming Chemical Stability in the Desired Solvent is not a Problem).
For each of the three vial samples prepared as described above, in which the amount of compound was totally dissolved, the following procedure was subsequently carried out: • a) A small amount (approx. 0.1 mg) of additional solid compound was added to the vial to maintain an excess of the compound in the mixture in the form of undissolved solid. • b) The samples were magnetically stirred for 24 hr. If required, additional solid compound (0.1 mg) was added to maintain excess of it and then the samples were stirred again. • c) Then the samples were filtered (Millipore Milex filters nylon 0.2 um) and three aliquots were taken (one from each of the three vials) and analysed by LC-MS. • d) The pH of the final solution in each sample was measured with a pH-meter (WTW pH330i and a pH-electrode Sentix 41).
3. LC-MS Assay for Analytical Quantification
All filtered aliquots were analysed by LC-MS. The analysis was carried out with a Luna 5 μC18 (2) column 4.6×150 mm, using a HP1100 HPLC instrument interfaced with a Waters ZMD-2000 MS spectrometer. The concentration of the final sample as prepared above was calculated from that of a reference calibration curve obtained from serial dilutions of a 2 mM solution of the compound under investigation in DMSO (Aldrich cat. ref.: 27685-5) stock solution.
The analysis of all LC-MS data was performed with MassLynx 3.4 software. Statistical and graphic analysis of data was performed using Microsoft Excel. The concentration (uM) and solubility (ug/ml) for each compound was calculated using the peak areas from the sample and those from the calibration curve.
A) FaSSIF is a solvent which simulates the Fasted State of the Intestinal Fluid. (FaSSIF: Fasted State Simulated Intestinal Fluid).
B) FeSSIF is a solvent which simulates the Fed State of the Intestinal Fluid. (FeSSIF: Fed State Simulated Intestinal Fluid).
C) Solubility at pH 7.4 was determined in phosphate buffered saline (PBS) (Fluka cat. ref: 79383)
D) Solubility at pH 1.0 was determined in 0.1N HCl solution (Scharlau AL0744010C)
E) Solubility at pH 4.5 was determined in sodium citrate 0.5M solution. (Aldrich 25, 127-5)

[2] = 0.1N HCl solution, simulated gastric fluid, pH 1 (HCl), read-out: Solubility at pH 1 (HCl)
[3] = FaSSIF (fasted state simulated intestinal fluid), fassif, read-out: Solubility in FaSSIF
[4] = phosphate buffered saline (PBS), aqueous buffer, pH 7.4 (PBS), read-out: Solubility at pH 7.4 (PBS)
[5] = sodium citrate 0.5M solution, aqueous buffer, pH 4.5 (Na citrate), read-out: Solubility at pH 4.5 (Na citrate)
[6] = FeSSIF (fed state simulated intestinal fluid), fessif, read-out: Solubility in FeSSIF

| SMILES | IC50 (Plasmodium falciparum) | solubility at 24 h [1, 2] | solubility at 24 h [1, 3] | solubility at 24 h [1, 4] | solubility at 24 h [1, 5] | solubility at 24 h [1, 6] |
| --- | --- | --- | --- | --- | --- | --- |
| Cc1[nH]c(C)c(-c2ccc(-c3cc(C(F)(F)F)cc(C(F)(F)F)c3)nc2)c(=O)c1Br [Example 25, 5-Bromo-2,6-dimethyl-6′-{3,5-bis[trifluoromethyl]phenyl}-3,3′-bipyridin-4(1H)-one] | < 0.125 mg/L | 0.001 to 0.005 mg/mL (≈ 2.04 to 10.2 µM) | < 0.001 mg/mL | < 0.001 mg/mL | < 0.001 mg/mL | – |
| Cc1[nH]c(C)c(-c2ccc(-c3cc(C(F)(F)F)ccc3F)nc2)c(=O)c1Cl [Example 56, 5-chloro-6′-[2-fluoro-5-(trifluoromethyl)phenyl]-2,6-dimethyl-3,3′-bipyridin-4(1H)-one] | < 0.125 mg/L | ≥ 0.05 mg/mL | 0.001 to 0.005 mg/mL (≈ 2.52 to 12.6 µM) | < 0.001 mg/mL | < 0.001 mg/mL | 0.01 to 0.05 mg/mL (≈ 25.2 to 126 µM) |
| Cc1[nH]c(C)c(-c2ccc(-c3ccc(C(F)(F)F)cc3F)nc2)c(=O)c1Cl [Example 58, 5-chloro-6′-[2-fluoro-4-(trifluoromethyl)phenyl]-2,6-dimethyl-3,3′-bipyridin-4(1H)-one] | < 0.125 mg/L | 0.01 to 0.05 mg/mL (≈ 25.2 to 126 µM) | < 0.001 mg/mL | < 0.001 mg/mL | < 0.001 mg/mL | 0.001 to 0.005 mg/mL (≈ 2.52 to 12.6 µM) |
| Cc1[nH]c(C)c(-c2ccc(-c3ccccc3F)nc2)c(=O)c1Cl [Example 37, 5-Chloro-6′-(2-fluorophenyl)-2,6-dimethyl-3,3′-bipyridin-4(1H)-one] | < 0.125 mg/L | ≥ 0.05 mg/mL | 0.01 to 0.05 mg/mL (≈ 30.4 to 152 µM) | 0.01 to 0.05 mg/mL (≈ 30.4 to 152 µM) | 0.01 to 0.05 mg/mL (≈ 30.4 to 152 µM) | – |
| Cc1[nH]c(C)c(-c2ccc(-c3ccccc3C(F)(F)F)nc2)c(=O)c1Br [Example 18, 5-Bromo-2,6-dimethyl-6′-{2-[trifluoromethyl]phenyl}-3,3′-bipyridin-4(1H)-one] | < 0.125 mg/L | ≥ 0.05 mg/mL | 0.01 to 0.05 mg/mL (≈ 23.6 to 118 µM) | 0.01 to 0.05 mg/mL (≈ 23.6 to 118 µM) | 0.01 to 0.05 mg/mL (≈ 23.6 to 118 µM) | – |
| Cc1[nH]c(C)c(-c2ccc(-c3ccc(C(F)(F)F)cc3C(F)(F)F)nc2)c(=O)c1Br [Example 24, 5-Bromo-2,6-dimethyl-6′-{2,4-bis[trifluoromethyl]phenyl}-3,3′-bipyridin-4(1H)-one] | < 0.125 mg/L | 0.005 to 0.01 mg/mL (≈ 10.2 to 20.4 µM) | < 0.001 mg/mL | < 0.001 mg/mL | < 0.001 mg/mL | – |
| Cc1[nH]c(C)c(-c2ccc(-c3ccc4c(c3)OCO4)nc2)c(=O)c1Br [Example 53] | < 0.125 mg/L | ≥ 0.05 mg/mL | 0.005 to 0.01 mg/mL (≈ 12.5 to 25 µM) | 0.001 to 0.005 mg/mL (≈ 2.5 to 12.5 µM) | 0.005 to 0.01 mg/mL (≈ 12.5 to 25 µM) | – |
